Assay results published in PMC8910920 (International Journal of Molecular Sciences, 2022).

Columns and labels:
[1] = tested on: CCI rats, cold hypersensitivity; assay: CCI model of neuropathic pain, cold sensitivity (acetone test); type: in vivo, rat; conditions: for cold hypersensitivity in CCI rats: 30 min after injection
Experimental: The CCI model of neuropathic pain allowed the evaluation of the effect RGM8-51 on cold, heat and mechanical sensitivity, as assayed by the acetone test, the Hargreaves test, and the automatized von Frey test, respectively. RGM8-51 was applied either locally (i.pl.; 10 µg) in the affected paw or systemically (intraperitoneally, i.p., 10 and 30 mg/kg) and the effect evaluated before (Baseline) and after CCI surgery. The nocifensive response after administration of RGM8-51 was compared with that of vehicle, while non-operated animals and the uninjured (contralateral) hind paw in CCI animals were used as controls.
Adult male Sprague-Dawley rats (weighing 200–220 g/6–8 weeks old) were used in these experiments. All experimental procedures were conducted according to the animal welfare guidelines of the European Community (European Directive 2010/63/UE) to minimize animal suffering and were approved by Universidad Complutense de Madrid and Comunidad de Madrid ethical committees on animal experimentation (PROEX 207.8/21). […]
For behavioral testing, rats were placed in individual methacrylate boxes with a wire mesh floor, and after a period of 15 min acclimatization, the cold, heat and mechanical sensitivity of the ipsilateral and contralateral paws was determined. Cold sensitivity was assessed with the acetone test. In total, 100 µL acetone were locally applied to the plantar surface of the hind paw and the duration of the subsequent nocifensive response (licking, brushing, and flinching of the paw) was determined during 60 s. Acetone application and assessment were repeated 2 times with a 5 min interval and the sum of the two values was recorded. Heat sensitivity was determined with the Hargreaves test, which uses infrared light as a heat source, with a Hargreaves apparatus (Serie 8, Model 336, IITC Life Science, Woodland Hills, CA USA). The light beam was directed to the plantar surface of the hind paw and the time from the beginning of irradiation to the appearance of first paw withdrawal movement was measured (paw withdrawal latency). […]

[2] = tested on: OXA-induced cold hypersensitivity in male mice; assay: Oxaliplatin-induced peripheral neuropathy, acetone drop test; type: in vivo, mouse
Experimental: For the OXA-induced peripheral neuropathy assay, OXA was […] injected on days 1, 3 and 5 to male mice, at a 6 mg/kg dose, to induce hypersensitivity to cold, as monitored by the acetone drop test (Figure 6).
For the experiments, 6–8 weeks C57 male mice (≈30g) (Harlam, Holland) were used. All experiments were approved by the Institutional Animal and Ethical Committee of the Universidad Miguel Hernandez and Comunidad Valencian ethical committees (2021/VSC/PEA/0089) where experiments were conducted and they were in accordance with the guidelines of the Economic European Community and the Committee for Research and Ethical Issues of the International Association for the Study of Pain. All parts of the study concerning animal care were performed under the control of veterinarians. Experiments were performed blinded for NTG and compound treatment.
Oxaliplatin (OXA, Tocris, Bristol, UK) was used to induce peripheral neuropathy and was dissolved in water with gentle warming as formerly described. OXA was intraperitoneally injected on days 1, 3 and 5 at a 6 mg/kg dose. […] Cold chemical sensitivity was assessed using the acetone drop test. […] Positive nociceptive responses (licking time in seconds) were recorded with a digital stopwatch during 20 s (cut-off). Acetone was applied twice in an interval of 5 min between each application and the mean was calculated.

SMILES: C[C@@H]1C(=O)N(C[C@H](Cc2ccccc2)N(Cc2ccccc2)Cc2ccccc2)[C@]1(Cc1ccccc1)C(=O)OC(C)(C)C [RGM8-51, 4(S)-Benzyl-3S-methyl-4-(tert-butoxy)carbonyl-1-[(2′S-dibenzylamino-3′-phenyl)prop-1′-yl]-2-oxoazetidine]
- cold hypersensitivity in CCI rats ([1]; i.p. 10 and 30 mg/kg): inhibited it dose-dependently
- cold hypersensitivity in CCI rats ([1]; i.pl. 10 µg): reduced cold hypersensitivity
- response to cold in non-operated animals (baseline) or contralateral uninjured paw ([1]; i.pl. or i.p.): no effect was observed
- OXA-induced cold hypersensitivity (cold-induced paw licking) ([2]; 0.1 µg i.pl., sustained activity from 15 to 30 min): still highly active
- OXA-induced cold hypersensitivity (cold-induced paw licking) ([2]; 1 μg i.pl., significant at 15 min, peak effect from 30 to 60 min): attenuates the cold-induced paw licking in a significant manner
